From US20220326244A1, “METHODS FOR DIAGNOSIS, PROGNOSIS, AND TREATMENT OF CANCER” (The Boardof Trustees of the Leland Stanford Junort …, priority 2019, published 2022)

Legend:
NK-92 cells = assay: PMA-stimulated degranulation and intracellular cytokine production of NK-92 cells (CyTOF); assay type: cell-based, human; details: mono- and coculture; PMA 4 h exposure
From the text: Intracellular cytokine production of CD9+ and CD9− NK-92 cells. One of the mechanisms by which dNK cells exert immune tolerance is through poor cytotoxic responses and secretion of a specific set of cytokines. Thus, we hypothesized that trogocytosis and the acquisition of CD9 by NK-92 cells endows them with features of immune tolerance. Therefore, we measured the intracellular expression levels of cytolytic proteins (perforin and granzyme B), anti-tumor cytokines ([…], TNFα, GM-CSF, IFNγ), the proangiogenic cytokine IL-8, the immunosuppressive cytokine IL-10, and CD107a, a marker for degranulation in both CD9+ and CD9− NK-92 cells after coculture with HGSC cells lines. Specifically, we measured NK-92 cell function before and after coculture in response to phorbol-12-myristate-13-acetate (PMA). Exposing cocultures to PMA circumvents upstream NK receptor signaling and is a convenient method for measuring NK cell function. In a pilot study, we determined that a coculture time of 6 h produced the most robust intracellular cytokine production (ICP). Therefore, NK-92 and HGSC cell lines were cocultured for 6 h in the presence of PMA (4 h exposure) with brefeldin A and monensin added to block secretion (Materials and Methods). For all experiments, we used two positive controls. […]

TYK-nu (V) cell line = assay: Carboplatin exposure of HGSC cell line, CyTOF with tumor NK receptor ligand/ADAM antibody panel; assay type: cell-based; details: for frequency of cells expressing nectin 4: baseline 6%
Procedure: (§1) FIG. 4. Responses to carboplatin across E, EV and V HGSC cell lines. OVCAR4 (E), Kuramochi (EV) and TYK-nu (V) cell lines exposed to vehicle or carboplatin at 0.5 or 1 μg/ml for 1 week were processed for CyTOF with the tumor NK receptor ligand/ADAM antibody panel. The parent population is defined as viable single cells negative for cisplatin and cPARP. The plots show frequencies of HGSC cells expressing activating and inhibitor NK receptor ligands (X-axis) gated out of the parent population (Y-axis). Plots show the mean of triplicates with standard deviations. p-values: *≤0.05, **≤0.005, for overall ANOVA.
(§2) Changes in NK receptor ligand expression levels in response to carboplatin. It is well established that activation of the DNA damage response with genotoxic agents increases the expression of ligands for NKG2D and DNAM1 thereby making a “stressed” cell more susceptible to NK cell killing. We therefore exposed the three HGSC cell lines to carboplatin, a genotoxic agent that is part of the standard-of-care regimen for women with HGSC. After one week, the HGSC cell lines were processed for CyTOF using the tumor/NK receptor ligand antibody panel (Table 12).
(§3) Sample Processing and Antibody Staining for CyTOF. Frozen, fixed single-cell suspensions of HGSC tumors or cell lines were thawed at room temperature. For each sample, 1×10^6 cells were aliquoted into cluster tubes in 96 well plates and subjected to pre-permeabilization palladium barcoding. After barcoding, pooled cells were pelleted and incubated for 10 min at room temperature with FcX block (Biolegend) to block non-specific antibody binding. Cells were then incubated with antibodies against surface markers for 45 min at room temperature. Cells were permeabilized at 4° C. with methanol or 1× Permeabilization Buffer (eBioscience) (only for the CyTOF antibody panel designed to characterize intracellular cytokines, on ice for 10 min. Cells were subsequently stained with antibodies against intracellular markers for 1 h at room temperature, washed, and incubated with the ^191/193Ir DNA intercalator (Fluidigm) at 4° C. overnight. Cells were washed and resuspended in a solution of normalization beads before introduction into the CyTOF 2.

Kuramochi (EV) cell line = assay: as above; assay type: cell-based; details: for frequency of cells expressing nectin 4: baseline 15%
Procedure: as §1, §2, §3

OVCAR4 (E) cell line = assay: as above; assay type: cell-based; details: for frequency of cells expressing nectin 4: OVCAR4, 1 week
Procedure: as §1, §2, §3

[1] = test system: HGSC cell lines (OVCAR4, Kuramochi, TYK-nu); assay: Carboplatin exposure of the three HGSC cell lines, CyTOF (stated for all lines together); assay type: cell-based
Procedure: as §1, §2
Sample Processing and Antibody Staining for CyTOF. Frozen, fixed single-cell suspensions of HGSC tumors or cell lines were thawed at room temperature. […]

[2] = test system: NK-92 cells cocultured with non-HGSC tumor cell lines; assay: Trogocytosis inhibition: CD9 uptake by NK-92 cells in coculture with non-HGSC cell lines; assay type: cell-based, human
From the text: Evaluation of NK-92 trogocyctosis from non-HGSC cell lines. In order to determine whether NK-92 CD9 trogocytosis was a feature of non-HGSC tumor cells, we established the frequency of CD9-expressing cells in 15 non-HGSC as well as 11 HGSC tumor cell lines (FIG. 6A). The frequency and levels of CD9-expressing tumor cells varied across the cell lines and are presented going from highest to lowest CD9 levels (FIGS. 6A and B). […] We therefore chose three non-HGSC tumor cell lines with high CD9 expression (HCT116, A431 and MCF7) and three with lower CD9 expression (HeLa, CaCo-2 and HepG2) for trogocytosis experiments (FIG. 6B). NK-92 trogocytosis from non-HGSC cell lines was highly varied, not correlated to CD9 levels and, aside from the HCT116 colorectal cancer cell line, less pronounced than from the HGSC cell lines (FIGS. 5C and 6C).
(§4) Trogocytosis inhibition. NK-92 cells were pre-treated with cytochalasin D (10 μM in complete media) for 2 h. They were then co-cultured with cancer cell lines as indicated in a ratio of 1:1 in the continuous presence of cytochalasin D for a further 2 h after which cells were stained with antibodies against CD9, CD45 and processed prior to CyTOF analysis as described above.

[3] = test system: NK-92 cells cocultured with OVCAR4, Kuramochi and TYK-nu HGSC tumor cell lines; assay: Trogocytosis inhibition: CD9 acquisition by NK-92 cells in coculture with HGSC cell lines; assay type: cell-based, human
Procedure: To further confirm that the mechanism of CD9 acquisition by NK-92 cells was through trogocytosis we performed an additional series of experiments. Many studies have shown that inhibitors of actin polymerization block trogocytosis but that the effect of these inhibitors vary depending on the cell type.
as §4

CCCCCCCCCCCCCC(=O)O[C@@H]1[C@@H](C)[C@@]2(O)[C@@H](C=C(CO)C[C@]3(O)C(=O)C(C)=C[C@@H]23)[C@@H]2C(C)(C)[C@]12OC(C)=O [PMA, phorbol-12-myristate-13-acetate]
NK-92 cell degranulation (CD107a) and production of MIP1a (NK-92 cells): robust responses

N.N.O=C([O-])C1(C(=O)[O-])CCC1.[Pt+2] [carboplatin]
frequency of cells expressing HLA-E (TYK-nu (V) cell line; TYK-nu, after carboplatin 1 week): significant increases
frequency of cells expressing nectin 4 (TYK-nu (V) cell line; TYK-nu, first listed of two carboplatin doses): 9%
frequency of cells expressing nectin 4 (TYK-nu (V) cell line; TYK-nu, second listed of two carboplatin doses): 9%
CD111 in TYK-nu cells (TYK-nu (V) cell line; after carboplatin 1 week): significant increase
frequency of cells expressing HLA-E (Kuramochi (EV) cell line; Kuramochi, after carboplatin 1 week): significant increases
frequency of cells expressing nectin 4 (Kuramochi (EV) cell line; Kuramochi, first listed of two carboplatin doses): 22%
frequency of cells expressing nectin 4 (Kuramochi (EV) cell line; Kuramochi, second listed of two carboplatin doses): 23%
frequency of Kuramochi cells expressing HLA-ABC (Kuramochi (EV) cell line; after carboplatin 1 week): significant increase
frequency of cells expressing HLA-E (OVCAR4 (E) cell line; OVCAR4, after carboplatin 1 week): significant increases
frequency of cells expressing nectin 4 (OVCAR4 (E) cell line; first listed of two carboplatin doses (0.5 or 1 μg/ml), baseline 24%): 39%
frequency of cells expressing nectin 4 (OVCAR4 (E) cell line; second listed of two carboplatin doses (0.5 or 1 μg/ml), baseline 24%): 45%
frequency of OVCAR4 cells expressing ULBP2 (OVCAR4 (E) cell line; after carboplatin (0.5 or 1 μg/ml, 1 week), baseline 24%): 50%
proportion of HGSC tumor cells that expressed NK inhibitory receptor ligands ([1]; all three cell lines, after carboplatin): increased
DNA damage response: pH2AX ([1]; carboplatin 0.5 or 1 μg/ml for 1 week): increase

C=C1[C@@H](C)[C@H]2[C@H](Cc3ccccc3)NC(=O)[C@]23[C@H](OC(C)=O)/C=C/[C@@](C)(O)C(=O)[C@@H](C)C/C=C/[C@H]3[C@@H]1O [cytochalasin D]
CD9 uptake in NK-92 ([2]; non-HGSC cell lines, most marked for HCT116, MCF7 and CaCo2): partially inhibited
inhibition of trogocytosis (non-HGSC cell coculture) ([2]; preincubation of NK-92 cells with cytochalasin D (10 μM)): partial inhibition
reduction of CD9+ NK-92 cells ([3]; NK-92 pre-incubated 2 h with cytochalasin D, coculture in its presence with OVCAR4, Kuramochi and TYK-nu): 40-69%
inhibition of trogocytosis (HGSC cell line coculture) ([3]; pre-incubation of NK-92 cells with cytochalasin D (10 μM)): partial inhibition
